Measured values reported in patent US20250090540A1, “PI3K-ALPHA INHIBITORS AND METHODS OF USE THEREOF” (Relay Therapeutics, Inc., priority 2021, published 2025).

target: H1047R PIK3CA enzyme (Homo sapiens, UniProt P42336, H1047R); experiment: ADP-Glo Biochemical PIK3CA Kinase Assay; details: not given
Protocol: Compounds to be assayed were plated in 16 doses of 1:2 serial dilutions (20 nL volume each well) on a 1536-well plate, and the plate warmed to room temperature. PIK3CA enzyme (e.g. H1047R, E542K, E545K, or wild-type) (1 μL of 2 nM solution in Enzyme Assay Buffer (comprising 50 mM HEPES pH 7.4, 50 mM NaCl, 6 mM MgCl2, 5 mM DTT and 0.03% CHAPS)) was added and shaken for 10 seconds and preincubated for 30 minutes. To the well was added 1 μL of 200 μM ATP and 20 μM of diC8-PIP2 in Substrate Assay Buffer (50 mM HEPES pH7.4, 50 mM NaCl, 5 mM DTT and 0.03% CHAPS) to start the reaction, and the plate was shaken for 10 seconds, then spun briefly at 1500 rpm, and then incubated for 60 minutes at room temperature. The reaction was stopped by adding 2 μL of ADP-Glo reagent (Promega), and spinning briefly at 1500 rpm, and then incubating for 40 minutes. ADP-Glo Detection reagent (Promega) was added and the plate spun briefly at 1500 rpm, then incubated for 30 minutes.

Sequence of H1047R PIK3CA enzyme (P42336 whole entry H1047R): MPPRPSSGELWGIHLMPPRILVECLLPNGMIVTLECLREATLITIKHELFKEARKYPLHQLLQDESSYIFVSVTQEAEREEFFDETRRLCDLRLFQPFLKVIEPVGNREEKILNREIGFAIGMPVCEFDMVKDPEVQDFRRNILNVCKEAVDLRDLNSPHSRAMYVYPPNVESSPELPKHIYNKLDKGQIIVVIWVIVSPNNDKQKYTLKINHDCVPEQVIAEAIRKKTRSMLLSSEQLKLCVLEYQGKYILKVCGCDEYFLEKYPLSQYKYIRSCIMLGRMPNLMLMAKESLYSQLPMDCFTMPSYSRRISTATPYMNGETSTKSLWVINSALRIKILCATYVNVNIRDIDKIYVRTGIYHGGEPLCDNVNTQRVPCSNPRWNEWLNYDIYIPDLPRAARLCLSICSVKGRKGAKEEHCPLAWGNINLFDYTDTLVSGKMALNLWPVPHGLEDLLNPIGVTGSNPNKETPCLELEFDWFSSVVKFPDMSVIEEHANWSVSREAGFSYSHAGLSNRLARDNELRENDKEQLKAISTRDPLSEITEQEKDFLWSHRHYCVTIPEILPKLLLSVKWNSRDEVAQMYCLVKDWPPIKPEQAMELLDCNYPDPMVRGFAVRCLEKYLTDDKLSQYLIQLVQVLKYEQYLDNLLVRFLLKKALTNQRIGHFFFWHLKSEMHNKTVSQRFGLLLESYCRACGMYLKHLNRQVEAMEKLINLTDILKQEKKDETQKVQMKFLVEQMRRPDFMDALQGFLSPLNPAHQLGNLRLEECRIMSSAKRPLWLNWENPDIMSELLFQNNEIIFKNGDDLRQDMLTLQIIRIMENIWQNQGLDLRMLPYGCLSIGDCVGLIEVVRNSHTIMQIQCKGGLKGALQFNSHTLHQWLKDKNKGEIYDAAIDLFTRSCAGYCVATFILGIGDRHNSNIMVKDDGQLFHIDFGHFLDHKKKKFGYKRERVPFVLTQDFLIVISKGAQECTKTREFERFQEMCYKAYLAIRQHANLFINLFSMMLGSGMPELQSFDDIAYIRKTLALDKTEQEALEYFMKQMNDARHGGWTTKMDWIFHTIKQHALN
Sequence of H1047R PIK3CA enzyme (P27986 whole entry partner): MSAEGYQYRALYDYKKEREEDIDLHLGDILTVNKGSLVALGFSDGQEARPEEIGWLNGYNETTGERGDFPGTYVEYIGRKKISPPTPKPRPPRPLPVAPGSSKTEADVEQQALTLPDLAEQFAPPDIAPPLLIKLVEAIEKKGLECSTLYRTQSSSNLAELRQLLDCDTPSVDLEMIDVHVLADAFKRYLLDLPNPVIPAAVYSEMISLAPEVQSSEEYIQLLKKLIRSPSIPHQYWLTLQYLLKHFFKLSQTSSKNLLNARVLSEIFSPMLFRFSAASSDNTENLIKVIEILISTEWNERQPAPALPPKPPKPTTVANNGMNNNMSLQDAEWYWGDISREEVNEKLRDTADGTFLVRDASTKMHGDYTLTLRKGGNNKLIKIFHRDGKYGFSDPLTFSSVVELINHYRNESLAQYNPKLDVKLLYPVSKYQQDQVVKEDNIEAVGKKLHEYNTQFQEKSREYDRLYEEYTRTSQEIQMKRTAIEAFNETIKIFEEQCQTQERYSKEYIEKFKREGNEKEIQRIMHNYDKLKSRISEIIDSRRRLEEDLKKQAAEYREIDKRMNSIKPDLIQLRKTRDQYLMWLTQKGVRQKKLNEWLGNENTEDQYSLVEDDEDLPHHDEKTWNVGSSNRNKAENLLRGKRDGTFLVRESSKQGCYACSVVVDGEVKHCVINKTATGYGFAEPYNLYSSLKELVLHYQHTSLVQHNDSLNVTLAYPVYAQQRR

| Compound | IC50 [µM] |
| --- | --- |
| O=C1NCc2ccccc2C1c1ccccc1-c1nc2c(F)cc(C(F)(F)F)cc2[nH]1 (stereo not shown) [I-820, 4-{2-[4-fluoro-6-(trifluoromethyl)-1H-1,3-benzodiazol-2-yl]phenyl}-1,2,3,4-tetrahydroisoquinolin-3-one] | 10 to 100 |
| C[C@@H](NC(=O)c1cnc(N2CCCOc3ccccc32)c(NC(=O)c2csc3ccccc23)c1)c1cccnc1 (racemic) [I-278] | 1 to 10 |
| CNC(=O)c1cnc(Nc2ccccc2C)c(NC(=O)[C@]23C[C@H]4C[C@H](C[C@H](C4)C2)C3)c1 [I-171] | 1 to 10 |
| Cc1cc(F)cc(C(=O)Nc2cc(-c3cnn(C)c3)cnc2Nc2ccccc2C)c1 [I-95] | 1 to 10 |
| CNC(=O)c1cnc(Nc2ccccc2)c(NC(=O)c2cc(F)cc(C(F)(F)F)c2)c1 [I-33] | 10 to 100 |
| Cc1ccccc1Nc1ncc(-c2cnn(C3CCNCC3)c2)cc1NC(=O)c1cc(F)cc(C(F)(F)F)c1 [I-91] | 0.5 to 1 |
| CNC(=O)c1cnc(NC2CCCCC2)c(NC(=O)c2cc(F)cc(C(F)(F)F)c2)c1 [I-359] | 10 to 100 |
| CC1CN(c2ncc(C(=O)N[C@H](C)c3cccnc3)cc2NC(=O)c2csc3ccccc23)c2ccccc2O1 (mixture of isomers) [I-336] | 1 to 10 |
| Cc1ccccc1Nc1cc(=O)n(C)cc1NC(=O)c1csc2ccccc12 [I-280] | 1 to 10 |
| Cc1ccccc1Nc1ncc(NS(C)(=O)=O)cc1NC(=O)c1cc(F)cc(C(F)(F)F)c1 [I-62] | 1 to 10 |
| O=C(Nc1cc(-c2ccc3ncnn3c2)cnc1NC(CO)CCO)c1cc(F)cc(C(F)(F)F)c1 (stereo not shown) [I-818] | 10 to 100 |
| O=C(N[C@@H]1CCC[C@H](O)[C@H]1c1cc(F)ccc1Cl)c1cc(F)cc(C(F)(F)F)c1 (racemic) [I-823, N-[(1R,2S,3S)-2-(2-chloro-5-fluorophenyl)-3-hydroxycyclohexyl]-3-fluoro-5-(trifluoromethyl)benzamide] | 10 to 100 |
| Cc1ccccc1Nc1ncc(-c2cnn(C)c2)cc1NC(=O)c1ccnc2c1ccn2C [I-98] | 10 to 100 |
| Cc1ccccc1Nc1cnccc1NC(=O)c1cc(F)cc(C(F)(F)F)c1 [I-220] | 1 to 10 |
| CNC(=O)c1cnc(Nc2cccc(F)c2)c(NC(=O)c2cc(F)cc(C(F)(F)F)c2)c1 [I-29] | 10 to 100 |
| Cc1ccccc1Nc1ncc(C(=O)N2CCOCC2)cc1NC(=O)c1cc(F)cc(C(F)(F)F)c1 [I-22] | 10 to 100 |

| Compound | IC50 [µM] |
| --- | --- |
| Cc1ccccc1Nc1ncc(-c2c(C)noc2C)cc1NC(=O)c1cc(F)cc(C(F)(F)F)c1 [I-78] | 0.5 to 1 |
| Cc1ccc(Nc2ncc(C(=O)NC3CS(=O)(=O)C3)cc2NC(=O)c2csc3ccccc23)cc1 [I-222] | 1 to 10 |
| CNc1ncc(Br)cc1NC(=O)c1cc(F)cc(C(F)(F)F)c1 [I-58] | 10 to 100 |
| COCCNc1ncccc1NC(=O)c1csc2ccccc12 [I-134] | 10 to 100 |
| Cc1ccccc1Nc1ncc(-c2cnn(C)c2)cc1NC(=O)c1cc2ccccc2n1C [I-132] | 1 to 10 |
| CNC(=O)c1cnc(NCCOC)c(NC(=O)c2cc(F)cc(C(F)(F)F)c2)c1 [I-358] | 10 to 100 |
| CNC(=O)c1cnc(Nc2ccnc(C)c2)c(NC(=O)c2cc(F)cc(C(F)(F)F)c2)c1 [I-200] | 10 to 100 |
| Cc1ccccc1Nc1cc(=O)n(CC(=O)NCC2CC(F)(F)C2)cc1NC(=O)c1csc2ccccc12 [I-363] | 1 to 10 |
| Cc1ccccc1Nc1ncc(C(=O)O)cc1NC(=O)c1cc(F)cc(C(F)(F)F)c1 [I-17] | 1 to 10 |
| Cc1ccccc1N[C@H]1CCN(C(=O)OC(C)(C)C)C[C@H]1C(=O)Nc1cc(F)cc(C(F)(F)F)c1 (racemic) [I-68] | 10 to 100 |
| Cc1ccccc1Nc1ncc(-c2cnn(C)c2)cc1NC(=O)c1cccn2nccc12 [I-89] | 10 to 100 |
| Cc1ccccc1Nc1ncc(-c2cnn(C)c2)cc1NC(=O)c1cccc2cnccc12 [I-119] | 10 to 100 |
| Cc1ccccc1Nc1ncc(-c2cnn(C)c2)cc1NC(=O)c1ccc(C(F)(F)F)cc1 [I-117] | 10 to 100 |
| CNC(=O)c1cc(NC(=O)c2cc(F)cc(C(F)(F)F)c2)c(Nc2cc(F)ccc2Cl)s1 [I-827, 5-((2-chloro-5-fluorophenyl)amino)-4-(3-fluoro-5-(trifluoromethyl)benzamido)-N-methylthiophene-2-carboxamide] | 0.5 to 1 |
| O=C(Nc1cc(-c2ccc3ncnn3c2)cnc1Nc1cc(CO)ccc1Cl)c1cc(F)cc(C(F)(F)F)c1 [I-811] | 10 to 100 |
| CNC(=O)c1cnc(NCc2cncn2C)c(NC(=O)c2cc(F)cc(C(F)(F)F)c2)c1 [I-323] | 10 to 100 |

More lines, now with the values ahead:

| IC50 [µM] | Compound |
| --- | --- |
| 1 to 10 | CNC(=O)c1cnc(Nc2ccccc2C)c(NC(=O)c2csc3c2CCC3)c1 [I-341] |
| 10 to 100 | CNC(=O)c1cnc(Nc2ccccc2C)c(NC(=O)c2cc(F)cc3cccnc23)c1 [I-319] |
| 10 to 100 | CNC(=O)c1cnc(Nc2ccccc2C)c(NC(=O)c2ccnc(C(F)(F)F)c2)c1 [I-366] |
| 10 to 100 | CNC(=O)c1cnc(Nc2ccccc2C)c(NC(=O)c2n[nH]c3ccccc23)c1 [I-175] |
| 10 to 100 | CNC(=O)c1cnc(Nc2ccccc2C)c(NC(=O)[C@@H](OC)c2ccccc2)c1 [I-169] |
| 10 to 100 | CNC(=O)c1cnc(Nc2ccccc2C)c(NC(=O)c2cn3c(Cl)cccc3n2)c1 [I-377] |
| 10 to 100 | CNC(=O)c1cnc(Nc2ccccc2C)c(NC(=O)c2cnccc2C(F)(F)F)c1 [I-365] |
| 10 to 100 | CNC(=O)c1cnc(Nc2ccccc2C)c(NC(=O)c2cc(F)c3ccccc3c2)c1 [I-322] |
| 1 to 10 | CNC(=O)c1cnc(Nc2ccccc2C)c(NC(=O)c2oc(C)nc2C)c1 [I-18] |
| 10 to 100 | CNC(=O)c1cnc(Nc2ccccc2C)c(NC(=O)c2cc(F)cc(-c3ccccc3)c2)c1 [I-318] |
| 10 to 100 | CNC(=O)c1cnc(Nc2ccccc2C)c(NC(=O)c2c(C)sc3ccccc23)c1 [I-328] |
| 10 to 100 | CNC(=O)c1cnc(Nc2ccccc2C)c(NC(=O)Cc2cc(F)cc(F)c2)c1 [I-161] |
| 10 to 100 | CNC(=O)c1cnc(Nc2ccccc2C)c(NC(=O)c2nc3ccccc3n(C)c2=O)c1 [I-368] |
| 10 to 100 | Cc1ccccc1Nc1ncc(-c2cnn(C)c2)cc1NC(=O)c1ccccc1C(F)(F)F [I-107] |
| 10 to 100 | CNC(=O)c1cnc(Nc2ccccc2C)c(NC(=O)c2cc(F)c3cc[nH]c3c2)c1 [I-394] |
| 1 to 10 | CNC(=O)c1cnc(Nc2ccccc2C)c(NC(=O)c2cc(F)cc(C3CC3)c2)c1 [I-188] |
| 1 to 10 | CNC(=O)c1cnc(Nc2ccccc2C)c(NC(=O)c2cc(F)cc(F)c2)c1 [I-141] |
| 10 to 100 | CNC(=O)c1cnc(Nc2ccccc2C)c(NC(=O)CC2COc3ccccc3O2)c1 (stereo not shown) [I-381] |
| 10 to 100 | CNC(=O)c1cnc(Nc2ccccc2C)c(NC(=O)C(c2ccccc2)C(C)C)c1 (stereo not shown) [I-166] |
| 10 to 100 | CNC(=O)c1cnc(Nc2ccc(C)cc2)c(NC(=O)c2csc3ccccc23)c1 [I-226] |

same assay, conditions: ADP-Glo biochemical PIK3CA kinase assay

| Compound | IC50 [µM] |
| --- | --- |
| Cc1ccccc1CNc1cccc(=O)n1Cc1ccccc1C [I-433] | 10 to 100 |
| Nc1cc(C(=O)NC2CS(=O)(=O)C2)cnc1N1CCOc2ccccc21 [I-630] | 1 to 10 |
| CNC(=O)c1cnc(N[C@@H]2CCOC2)c(NC(=O)c2cc(F)cc(C(F)(F)F)c2)c1 (racemic) [I-554] | 1 to 10 |
| Cc1cc(NC(=O)c2cc(F)cc(C(F)(F)F)c2)n(-c2ccccc2F)n1 [I-789] | 1 to 10 |
| Cc1ccccc1Nc1cc(=O)n(CCc2ccncn2)cc1NC(=O)c1csc2ccccc12 [I-769] | 1 to 10 |
| CNC(=O)c1cnc(Nc2ccccc2C)c(NC(=O)NC23C[C@H]4C[C@@H](C2)C[C@@H](C3)C4)c1 [I-798] | 1 to 10 |
| N#Cc1cccc(NC(=O)c2cc(F)cc(C(F)(F)F)c2)c1Cc1ccccc1Cl [I-793] | 0.1 to 0.5 |
| Nc1ncc(C(=O)NC2CC(F)(F)C2)cc1NC(=O)c1csc2ccccc12 [I-675] | 1 to 10 |
| COC1CN(c2ncc(C(=O)N[C@H]3C[C@@H](C(C)=O)C3)cc2NC(=O)c2csc3ccccc23)C1 [I-771] | 1 to 10 |

The remaining lines, values ahead:

| IC50 [µM] | Compound |
| --- | --- |
| 1 to 10 | CNC(=O)c1cnc(Nc2cccc(OC)c2)c(NC(=O)c2csc3ccccc23)c1 [I-401] |
| 1 to 10 | CNC(=O)c1cnc(Nc2ccccc2C)c(NC(=O)c2nc(Cl)cc3ccccc23)c1 [I-555] |
| 10 to 100 | CNC(=O)c1cnc(Nc2ccccc2C)c(NC(=O)c2cc3c(C)cccc3[nH]2)c1 [I-440] |
| 1 to 10 | CNC(=O)c1cnc(Nc2ccccc2C)c(NC(=O)c2ccc(C)c(F)c2)c1 [I-723] |
| 1 to 10 | CNC(=O)c1cnc(Nc2ccccc2C)c(NC(=O)c2cccc(F)c2Cl)c1 [I-566] |
| 1 to 10 | CNC(=O)c1cnc(Nc2ccccc2C)c(NC(=O)c2cc3cccc(Cl)c3s2)c1 [I-456] |
| 10 to 100 | CNC(=O)c1cnc(Nc2ccccc2C)c(NC(=O)c2cc(C(F)(F)F)ccn2)c1 [I-432] |
| 10 to 100 | CNC(=O)c1cnc(Nc2ccccc2C)c(NC(=O)c2cnn3cccc(OC)c23)c1 [I-430] |
| 1 to 10 | CNC(=O)c1cnc(Nc2ccccc2C)c(NC(=O)c2ccn3ccnc3c2)c1 [I-647] |
| 10 to 100 | CNC(=O)c1cnc(Nc2ccccc2C)c(NC(=O)c2cc(Br)cc3ccccc23)c1 [I-461] |
| 10 to 100 | CNC(=O)c1cnc(Nc2ccccc2C)c(NC(=O)c2nc3ccccn3c2F)c1 [I-415] |
| 1 to 10 | CNC(=O)c1cnc(Nc2ccccc2C)c(NC(=O)c2cccc(COC)c2)c1 [I-577] |
| 1 to 10 | COCC1CN(C(=O)c2cnc(Nc3ccccc3C)c(NC(=O)c3csc4ccccc34)c2)C1 [I-615] |
| 10 to 100 | CNC(=O)c1cnc(Nc2ccccc2C)c(NC(=O)c2cc3c(Cl)cncc3s2)c1 [I-452] |
| 1 to 10 | Cc1ccccc1Nc1ncc(C(=O)N2CC3(COC3)C2)cc1NC(=O)c1csc2ccccc12 [I-576] |
